From US9113629B2, “4-amino-6-(4-substituted-phenyl)-picolinates and 6-amino-2-(4-substituted-phenyl)-pyrimidine-4-carboxylates and their use as herbicides” (DOW AGROSCIENCES LLC, priority 2013, dated 2015)

test system: Key Grass and Sedge Weeds as well as Grass Crops; test: Post-emergent Test II herbicidal activity (Table 6); assay type: in vivo; details: post-emergence, 336 h, CYPES: yellow nutsedge (Cyperus esculentus), 70 g ai/ha, read-out: Visual Growth Reduction (%) 14 Days After Application, CYPES
Procedure, shortened: (§1)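 Greenhouse-grown plants at first or second true leaf stage were sprayed post-emergence with compound in acetone/DMSO-based aqueous spray containing crop oil concentrate and surfactant, at 187 L/ha, highest rate plus ½× to 1/16× dilutions. After 14 d, injury was scored visually versus untreated plants, 0 (none) to 100% (complete kill).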

SMILES | pest or weed control at 70 g/ha [%]
COC(=O)c1nc(-c2ccc(C(F)F)cc2)c(F)c(N)c1Cl [Compound 209] | 85 to 94

same assay, conditions: post-emergence, 336 h, CYPES: yellow nutsedge (Cyperus esculentus), 140 g ai/ha, read-out: Visual Growth Reduction (%) 14 Days After Application, CYPES

SMILES | pest or weed control at 140 g/ha [%]
COC(=O)c1nc(-c2ccc(C(F)F)cc2)c(F)c(N)c1Cl [Compound 209] | 85 to 94

same assay, conditions: post-emergence, 336 h, DIGSA: crabgrass (Digitaria sanguinalis), 70 g ai/ha, read-out: Visual Growth Reduction (%) 14 Days After Application, DIGSA

SMILES | pest or weed control at 70 g/ha [%]
COC(=O)c1nc(-c2ccc(C(F)F)cc2)c(F)c(N)c1Cl [Compound 209] | 45 to 59

same assay, conditions: post-emergence, 336 h, DIGSA: crabgrass (Digitaria sanguinalis), 140 g ai/ha, read-out: Visual Growth Reduction (%) 14 Days After Application, DIGSA

SMILES | pest or weed control at 140 g/ha [%]
COC(=O)c1nc(-c2ccc(C(F)F)cc2)c(F)c(N)c1Cl [Compound 209] | 60 to 74

same assay, conditions: post-emergence, 336 h, ECHCG: barnyardgrass (Echinochloa crus-galli), 70 g ai/ha, read-out: Visual Growth Reduction (%) 14 Days After Application, ECHCG

SMILES | pest or weed control at 70 g/ha [%]
COC(=O)c1nc(-c2ccc(C(F)F)cc2)c(F)c(N)c1Cl [Compound 209] | 95 to 100

same assay, conditions: post-emergence, 336 h, ECHCG: barnyardgrass (Echinochloa crus-galli), 140 g ai/ha, read-out: Visual Growth Reduction (%) 14 Days After Application, ECHCG

SMILES | pest or weed control at 140 g/ha [%]
COC(=O)c1nc(-c2ccc(C(F)F)cc2)c(F)c(N)c1Cl [Compound 209] | 95 to 100

same assay, conditions: post-emergence, 336 h, ORYSA: rice (Oryza sativa), crop, 70 g ai/ha, read-out: Visual Growth Reduction (%) 14 Days After Application, ORYSA

SMILES | pest or weed control at 70 g/ha [%]
COC(=O)c1nc(-c2ccc(C(F)F)cc2)c(F)c(N)c1Cl [Compound 209] | 0 to 29

same assay, conditions: post-emergence, 336 h, ORYSA: rice (Oryza sativa), crop, 140 g ai/ha, read-out: Visual Growth Reduction (%) 14 Days After Application, ORYSA

SMILES | pest or weed control at 140 g/ha [%]
COC(=O)c1nc(-c2ccc(C(F)F)cc2)c(F)c(N)c1Cl [Compound 209] | 0 to 29

same assay, conditions: post-emergence, 336 h, SETFA: giant foxtail (Setaria faberi), 70 g ai/ha, read-out: Visual Growth Reduction (%) 14 Days After Application, SETFA

SMILES | pest or weed control at 70 g/ha [%]
COC(=O)c1nc(-c2ccc(C(F)F)cc2)c(F)c(N)c1Cl [Compound 209] | 45 to 59

same assay, conditions: post-emergence, 336 h, SETFA: giant foxtail (Setaria faberi), 140 g ai/ha, read-out: Visual Growth Reduction (%) 14 Days After Application, SETFA

SMILES | pest or weed control at 140 g/ha [%]
COC(=O)c1nc(-c2ccc(C(F)F)cc2)c(F)c(N)c1Cl [Compound 209] | 75 to 84

same assay, conditions: post-emergence, 336 h, SORVU: grain sorghum (Sorghum vulgare), 70 g ai/ha, read-out: Visual Growth Reduction (%) 14 Days After Application, SORVU

SMILES | pest or weed control at 70 g/ha [%]
COC(=O)c1nc(-c2ccc(C(F)F)cc2)c(F)c(N)c1Cl [Compound 209] | 95 to 100

same assay, conditions: post-emergence, 336 h, SORVU: grain sorghum (Sorghum vulgare), 140 g ai/ha, read-out: Visual Growth Reduction (%) 14 Days After Application, SORVU

SMILES | pest or weed control at 140 g/ha [%]
COC(=O)c1nc(-c2ccc(C(F)F)cc2)c(F)c(N)c1Cl [Compound 209] | 95 to 100

same assay, conditions: post-emergence, 336 h, TRZSS (wheat, Triticum aestivum), crop, 70 g ai/ha, read-out: Visual Growth Reduction (%) 14 Days After Application, TRZSS

SMILES | pest or weed control at 70 g/ha [%]
COC(=O)c1nc(-c2ccc(C(F)F)cc2)c(F)c(N)c1Cl [Compound 209] | 0 to 29

same assay, conditions: post-emergence, 336 h, TRZSS (wheat, Triticum aestivum), crop, 140 g ai/ha, read-out: Visual Growth Reduction (%) 14 Days After Application, TRZSS

SMILES | pest or weed control at 140 g/ha [%]
COC(=O)c1nc(-c2ccc(C(F)F)cc2)c(F)c(N)c1Cl [Compound 209] | 0 to 29

same assay, conditions: post-emergence, 336 h, ZEAMX: maize, corn (Zea mays), crop, 70 g ai/ha, read-out: Visual Growth Reduction (%) 14 Days After Application, ZEAMX

SMILES | pest or weed control at 70 g/ha [%]
COC(=O)c1nc(-c2ccc(C(F)F)cc2)c(F)c(N)c1Cl [Compound 209] | 75 to 84

same assay, conditions: post-emergence, 336 h, ZEAMX: maize, corn (Zea mays), crop, 140 g ai/ha, read-out: Visual Growth Reduction (%) 14 Days After Application, ZEAMX

SMILES | pest or weed control at 140 g/ha [%]
COC(=O)c1nc(-c2ccc(C(F)F)cc2)c(F)c(N)c1Cl [Compound 209] | 85 to 94

test system: Key Broadleaf Weed and Crop Species; test: Post-emergent Test II herbicidal activity (Table 5); assay type: in vivo; details: post-emergence, 336 h; ABUTH: velvetleaf (Abutilon theophrasti); application rate 70 g ai/ha; 14 days after application; read-out: Visual Growth Reduction (%) 14 Days After Application, ABUTH
Procedure, shortened: as §1

SMILES | pest or weed control at 70 g/ha [%]
COC(=O)c1nc(-c2ccc(C(F)F)cc2)c(F)c(N)c1Cl [Compound 209] | 95 to 100

same assay, conditions: post-emergence, 336 h; ABUTH: velvetleaf (Abutilon theophrasti); application rate 140 g ai/ha; 14 days after application; read-out: Visual Growth Reduction (%) 14 Days After Application, ABUTH

SMILES | pest or weed control at 140 g/ha [%]
COC(=O)c1nc(-c2ccc(C(F)F)cc2)c(F)c(N)c1Cl [Compound 209] | 95 to 100

same assay, conditions: post-emergence, 336 h; AMARE: redroot pigweed (Amaranthus retroflexus); application rate 70 g ai/ha; 14 days after application; read-out: Visual Growth Reduction (%) 14 Days After Application, AMARE

SMILES | pest or weed control at 70 g/ha [%]
COC(=O)c1nc(-c2ccc(C(F)F)cc2)c(F)c(N)c1Cl [Compound 209] | 95 to 100

same assay, conditions: post-emergence, 336 h; AMARE: redroot pigweed (Amaranthus retroflexus); application rate 140 g ai/ha; 14 days after application; read-out: Visual Growth Reduction (%) 14 Days After Application, AMARE

SMILES | pest or weed control at 140 g/ha [%]
COC(=O)c1nc(-c2ccc(C(F)F)cc2)c(F)c(N)c1Cl [Compound 209] | 95 to 100

same assay, conditions: post-emergence, 336 h; BRSNN: oilseed-rape, canola (Brassica napus); application rate 70 g ai/ha; 14 days after application; read-out: Visual Growth Reduction (%) 14 Days After Application, BRSNN

SMILES | pest or weed control at 70 g/ha [%]
COC(=O)c1nc(-c2ccc(C(F)F)cc2)c(F)c(N)c1Cl [Compound 209] | 85 to 94

same assay, conditions: post-emergence, 336 h; BRSNN: oilseed-rape, canola (Brassica napus); application rate 140 g ai/ha; 14 days after application; read-out: Visual Growth Reduction (%) 14 Days After Application, BRSNN

SMILES | pest or weed control at 140 g/ha [%]
COC(=O)c1nc(-c2ccc(C(F)F)cc2)c(F)c(N)c1Cl [Compound 209] | 85 to 94

same assay, conditions: post-emergence, 336 h; CHEAL: lambsquarters (Chenopodium album); application rate 70 g ai/ha; 14 days after application; read-out: Visual Growth Reduction (%) 14 Days After Application, CHEAL

SMILES | pest or weed control at 70 g/ha [%]
COC(=O)c1nc(-c2ccc(C(F)F)cc2)c(F)c(N)c1Cl [Compound 209] | 95 to 100

same assay, conditions: post-emergence, 336 h; CHEAL: lambsquarters (Chenopodium album); application rate 140 g ai/ha; 14 days after application; read-out: Visual Growth Reduction (%) 14 Days After Application, CHEAL

SMILES | pest or weed control at 140 g/ha [%]
COC(=O)c1nc(-c2ccc(C(F)F)cc2)c(F)c(N)c1Cl [Compound 209] | 95 to 100

same assay, conditions: post-emergence, 336 h; EPHHL: wild poinsettia (Euphorbia heterophylla); application rate 70 g ai/ha; 14 days after application; read-out: Visual Growth Reduction (%) 14 Days After Application, EPHHL

SMILES | pest or weed control at 70 g/ha [%]
COC(=O)c1nc(-c2ccc(C(F)F)cc2)c(F)c(N)c1Cl [Compound 209] | 95 to 100

same assay, conditions: post-emergence, 336 h; EPHHL: wild poinsettia (Euphorbia heterophylla); application rate 140 g ai/ha; 14 days after application; read-out: Visual Growth Reduction (%) 14 Days After Application, EPHHL

SMILES | pest or weed control at 140 g/ha [%]
COC(=O)c1nc(-c2ccc(C(F)F)cc2)c(F)c(N)c1Cl [Compound 209] | 95 to 100

same assay, conditions: post-emergence, 336 h; HELAN: sunflower (Helianthus annuus); application rate 70 g ai/ha; 14 days after application; read-out: Visual Growth Reduction (%) 14 Days After Application, HELAN

SMILES | pest or weed control at 70 g/ha [%]
COC(=O)c1nc(-c2ccc(C(F)F)cc2)c(F)c(N)c1Cl [Compound 209] | 95 to 100

same assay, conditions: post-emergence, 336 h; HELAN: sunflower (Helianthus annuus); application rate 140 g ai/ha; 14 days after application; read-out: Visual Growth Reduction (%) 14 Days After Application, HELAN

SMILES | pest or weed control at 140 g/ha [%]
COC(=O)c1nc(-c2ccc(C(F)F)cc2)c(F)c(N)c1Cl [Compound 209] | 95 to 100

same assay, conditions: post-emergence, 336 h; VIOTR: wild pansy (Viola tricolor); application rate 70 g ai/ha; 14 days after application; read-out: Visual Growth Reduction (%) 14 Days After Application, VIOTR

SMILES | pest or weed control at 70 g/ha [%]
COC(=O)c1nc(-c2ccc(C(F)F)cc2)c(F)c(N)c1Cl [Compound 209] | 0 to 29

same assay, conditions: post-emergence, 336 h; VIOTR: wild pansy (Viola tricolor); application rate 140 g ai/ha; 14 days after application; read-out: Visual Growth Reduction (%) 14 Days After Application, VIOTR

SMILES | pest or weed control at 140 g/ha [%]
COC(=O)c1nc(-c2ccc(C(F)F)cc2)c(F)c(N)c1Cl [Compound 209] | 0 to 29
